In article PMC6739329 (Scientific Reports, 2019):
Like-named read-outs stand apart in the source and are kept apart here.

Legend:
[1] = biological target: maltose-binding protein (MBP) (Escherichia coli, UniProt P0AEX9); test: Thermal stability assay of maltose-binding protein (negative control protein); conditions: 10 mM SA
[2] = tested on: HEK293 cells; test: Morphology of HEK293 cells treated 15 h with salicylates; type: cell-based, human; conditions: 15 h treatment
Text: Data are mean ± SD (n = 3). […] Scale bar = 20 μm.
changes in HEK293 cells. Scale bar = 50 μm.
changes of HEK293 cells. Scale bar = 50 μm.

[3] = biological target: T1, ENO1 (Homo sapiens, UniProt P06733); test: In vitro ENO1 activity assay (2-PGA to PEP, absorbance at 240 nm)
T1 sequence (P06733 whole entry): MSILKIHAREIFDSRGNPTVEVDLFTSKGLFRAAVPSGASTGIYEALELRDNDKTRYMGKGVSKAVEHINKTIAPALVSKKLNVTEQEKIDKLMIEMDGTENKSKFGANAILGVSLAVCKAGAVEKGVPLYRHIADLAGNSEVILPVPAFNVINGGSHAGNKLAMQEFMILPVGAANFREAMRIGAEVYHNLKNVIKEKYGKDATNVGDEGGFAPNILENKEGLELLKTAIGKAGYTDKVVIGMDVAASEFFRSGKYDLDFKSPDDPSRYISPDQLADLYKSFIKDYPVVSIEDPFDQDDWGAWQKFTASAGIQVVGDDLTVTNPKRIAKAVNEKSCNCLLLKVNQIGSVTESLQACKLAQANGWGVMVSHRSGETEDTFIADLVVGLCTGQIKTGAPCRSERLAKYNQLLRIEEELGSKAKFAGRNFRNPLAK
Experimental: Background signals induced by reaction solutions containing salicylates and 2-PGA, but without ENO1, were subtracted to calculate ΔOD240. […] Percent inhibition was calculated by monitoring the ΔOD240 at 5 min with or without salicylates. Data are mean ± SD (n = 3). Experiments were repeated three times with similar results.
The catalytic activity of ENO1 was tested as previously described with minor modifications[80]. Briefly, increasing concentrations of salicylates were incubated with 0.1 µM ENO1 for 30 min at RT in reaction buffer (10 mM KCl, 5 mM MgSO4, 100 mM triethanolamine pH 7.4).

[4] = tested on: HEK293 cells; test: In vivo glycolytic activity assay (extracellular lactate); type: cell-based, human; conditions: for Reduction of extracellular lactate levels: 15 hrs
Experimental: Data are mean ± SD (n = 3).
Glycolytic activity of HEK293 cells in the absence or presence of different concentrations of salicylates was measured by monitoring the level of lactate produced[33],[34]. HEK293 cells were seeded in 96-well tissue culture plates at a density of 10^4 cells/well in 120 µL of complete medium (DMEM medium supplemented with 10% heat-inactivated FBS). Plates were incubated overnight in a CO2 incubator at 37 °C. […] Following a 15 hr incubation in a CO2 incubator at 37 °C, cellular supernatants were collected and lactate levels were measured by colorimetry according to the manufacturer’s instructions for a glycolysis cell-based assay kit (Cayman, Ann Arbor, Michigan).

[5] = biological target: T2, PKM2 (Homo sapiens, UniProt P14618); test: Thermal stability assay of PKM2 with salicylates; type: binding; conditions: 2 µM PKM2, Tm 42 °C without ligand
T2 construct: each gene was amplified and cloned into pET28a vector for recombinant protein production; 6xHis; made in house; host or cells: Escherichia coli BL21
T2 sequence (P14618 whole entry): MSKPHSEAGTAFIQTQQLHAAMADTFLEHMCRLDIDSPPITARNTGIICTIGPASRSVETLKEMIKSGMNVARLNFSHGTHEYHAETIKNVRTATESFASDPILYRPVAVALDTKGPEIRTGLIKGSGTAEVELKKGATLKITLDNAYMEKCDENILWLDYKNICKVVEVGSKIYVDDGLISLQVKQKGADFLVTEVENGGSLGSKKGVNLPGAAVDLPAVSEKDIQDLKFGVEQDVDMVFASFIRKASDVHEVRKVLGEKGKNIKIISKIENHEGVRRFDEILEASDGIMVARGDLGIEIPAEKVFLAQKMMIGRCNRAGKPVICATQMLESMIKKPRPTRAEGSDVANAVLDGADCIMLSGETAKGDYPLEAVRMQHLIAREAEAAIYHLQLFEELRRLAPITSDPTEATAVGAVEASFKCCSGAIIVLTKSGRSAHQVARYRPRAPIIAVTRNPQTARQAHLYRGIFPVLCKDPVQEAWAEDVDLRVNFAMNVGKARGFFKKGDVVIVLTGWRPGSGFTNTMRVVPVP

[6] = biological target: T2, PKM2; test: In vitro PKM activity assay (LDH-coupled, NADH to NAD+), PKM2; type: biochemical; conditions: 1.3 ng/µL PKM2
Experimental: PK activity was measured using a method described previously with minor modifications. In brief, PK activity was measured by monitoring pyruvate-dependent conversion of NADH to NAD^+ by lactate dehydrogenase (LDH). Increasing concentrations of salicylates were incubated with PKM2 (final concentration 1.3 ng/uL) for 30 min at RT in the incubation buffer (50 mM Tris-HCl, pH 7.5, 100 mM KCl, 5 mM MgCl2) before mixing with 1/10 volume of 10X pyruvate kinase reaction buffer (500 mM Tris-HCl, pH 7.5, 500 mM KCl, 50 mM MgCl2, 5 mM PEP (Sigma-Aldrich, P0564), 6 mM ADP (Sigma-Aldrich, A5285), 80 units LDH (Sigma-Aldrich, L1254), 10 mM DTT, and 1.80 mM NADH (SigmaAldrich, N8129)).

[7] = biological target: PKM1 (Homo sapiens, UniProt P14618); test: In vitro PKM activity assay, PKM1; type: biochemical; conditions: SA 0.4 mM
PKM1, sequence (P14618 1-531 isoform P14618-2, species assumed): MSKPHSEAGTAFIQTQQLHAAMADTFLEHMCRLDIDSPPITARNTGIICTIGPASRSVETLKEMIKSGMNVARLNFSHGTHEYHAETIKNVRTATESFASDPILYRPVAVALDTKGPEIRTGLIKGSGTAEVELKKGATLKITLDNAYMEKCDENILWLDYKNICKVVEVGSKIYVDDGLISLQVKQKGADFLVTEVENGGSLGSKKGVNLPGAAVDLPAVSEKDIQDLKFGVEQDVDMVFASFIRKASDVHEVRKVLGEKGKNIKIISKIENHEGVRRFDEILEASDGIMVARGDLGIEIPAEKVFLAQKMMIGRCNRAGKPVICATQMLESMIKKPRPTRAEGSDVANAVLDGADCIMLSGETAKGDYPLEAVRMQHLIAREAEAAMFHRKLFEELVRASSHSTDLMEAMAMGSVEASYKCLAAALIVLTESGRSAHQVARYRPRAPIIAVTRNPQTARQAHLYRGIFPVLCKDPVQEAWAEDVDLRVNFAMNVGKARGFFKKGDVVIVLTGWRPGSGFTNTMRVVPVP

[8] = biological target: T1, ENO1; test: Thermal stability assay of ENO1 with salicylates; conditions: 2 µM ENO1, Tm 44 °C in the absence of SA or amoB1
Experimental: Data are mean ± SD (n = 3). Experiments were repeated three times with similar results.
Thermal stability assay was performed with ENO1 and PKM2 as previously described with minor modifications[7].
A thermal stability assay was used to examine the binding activities of ENO1 and PMK2 with salicylates as previously described with minor modifications 6. Purified ENO1 and
final concentration of each protein was 2 μM in 16 μl of reaction buffer (0.1 M HEPES, pH 7.5, 150 mM NaCl, and 5 mM BME). Four μl of a 1:200 dilution of stock SYPRO orange dye (Invitrogen) in reaction buffer was added to achieve a total reaction volume of 20 μl. Thermal melt curves were obtained by heating the protein from 20–95°C and monitoring fluorescence at 590 nm with a CFX96 Real-Time PCR Detection System (Bio-Rad). All curves were obtained in triplicate and averaged.

[9] = resulting from the required aspirin dosage; cited from earlier work
[10] = biological target: T1, ENO1; conditions: read-out: Kd (quenching of ENO1 intrinsic fluorescence); 1 µM ENO1, 30 min at RT
Experimental: For the Trp intrinsic fluorescence assay, different concentrations of salicylates were incubated with 1 µM ENO1 for 30 min at RT, then Trp emission fluorescence was obtained (excitation/emission = 295 nm/350 nm). […] Data are mean ± SD (n = 3). Experiments were repeated three times with similar results.
Binding of salicylates to ENO1 and PKM2 was assessed using a Trp intrinsic fluorescence assay as previously described[79].
A Trp intrinsic fluorescence assay was used to examine the binding of salicylates to ENO1
The final concentration of each protein was 1 μM in phosphate-buffered saline (PBS) buffer. The mixtures were subjected to excitation wavelength of 295 nm and the Trp emission fluorescence was recorded at 350 nm using a LS55 fluorescence spectrometer (Perkin Elmer). All data were obtained in triplicate and averaged.

[11] = biological target: T2, PKM2; test: Tryptophan (Trp) intrinsic fluorescence assay of PKM2; type: binding; conditions: 1 µM PKM2, 30 min at RT; read-out: Kd (quenching of PKM2 intrinsic fluorescence)

## O=C(O)c1ccccc1O [SA, Salicylic acid]
[1]
  Tm of MBP: not altered
[2]
  Concentration at which cells were substantially smaller and more spherical: ≥ 20000 µM
[2]; microscope
  Concentration with no detectable morphological deformation of cells: up to 10 mM
[3]
  IC50: 1300 µM
[4]; 0.5 mM SA
  Reduction of extracellular lactate levels: 12%
[4]; 1.0 mM SA
  Reduction of extracellular lactate levels: 27%
[5]; 5 mM SA
  Tm of PKM2: 41 °C
[6]; 400 µM SA
  inhibition at 400 µM: ≤ 40%
[7]
  Effect on PKM1 enzymatic activity: did not alter
[8]; 5 mM SA
  Tm of ENO1: 43.0 °C
[9]
  SA in the plasma for analgesic/antipyretic effects: ~ 0.5 mM

## COc1cc(CCc2ccccc2)c(C(=O)O)c(O)c1C/C=C(\C)CCC=C(C)C [amoB1, amorfrutin B1]
[2]
  Concentration at which cell deformation was observed: above 2 µM
  Concentration with no visible morphological changes of cells: Up to 2 µM
[10]
  Kd: 26.9 µM
[11]
  Kd: 3.2 µM
[3]; ratio of IC50 values
  Potency of ENO1 inhibition relative to SA (times stronger than SA): ~ 84 times
[3]; read-out: IC50 for ENO1 enzymatic activity, 0.1 µM ENO1, […] 2-PGA, ΔOD240 at 5 min
  IC50: 15.4 µM
[4]; 20–50 µM amoB1, 15 hr
  Extracellular lactate levels: drastically reduced
[4]; amoB1 up to 10 µM, 15 hr
  Extracellular lactate levels: not substantially altered
[5]; 5 µM amoB1
  Tm of PKM2: 42.4 °C
[6]
  IC50: 15.2 µM
[8]; 12.5 µM amoB1
  Tm of ENO1: 45.1 °C
